# According to patent US12065427B2, “Heterocyclic compounds capable of activating STING” (BOEHRINGER INGELHEIM INTERNATIONAL GMBH, priority 2021, dated 2024):
# Columns and labels:
# STING R293Q-variant = target: T1, STING R293Q-variant (Homo sapiens, UniProt Q86WV6, H232R/R293Q); assay: IRF-inducible SEAP reporter assay in THP1-Blue ISG cells, STING R293Q-variant; assay type: cell-based; details: 24 hours incubation
# T1 construct: expressed in transfected cells; host or cells: THP1-Blue ISG hSTING KO clone, retroviral MSCV-ires-GFP-Blasti
# Source text: (§1) In Vitro Cytokine Induction Measured Via Activation of an Interferon Regulatory Factor Inducible Reporter Gene
# (§2) Activation of the STING protein expressed in cell lines results in an increase of interferon production. By the stable integration of an interferon regulatory factor (IRF)-inducible SEAP gene (secreted embryonic alkaline phosphatase) reporter construct the functional interferon signaling pathway can be monitored. Using Invivogen's THP1-Blue™ ISG colorimetric enzyme assay and a suitable optical density (OD) reader the activity of SEAP can be detected and quantified. This technique could be used to characterize pharmacological modification of the STING pathway.
# (§3) Several single nucleotide polymorphisms have been identified in the human STING gene. To determine the activity of the above described compounds, THP1-Blue™ ISG reporter cell lines expressing the different human STING variants have been generated. To do so, the endogenous human STING was first deleted using the CRISPR/CAS9 system: THP1-Blue ISG cells were electroporated with ALL-IN-ONE CRISPR plasmids targeting the STING gene (purchased from Sigma encoding the gRNA and GFP as a reporter gene for successful transduction). GFP positive cells then were sorted 24 h post transfection and expanded. Cells were then dispersed in semisolid methocel medium to allow single cell clone isolations. Clones were then screened for cGAMP responsiveness using the Quanti-Blue™ reporter assay. Non-responsive clones were subsequently analysed for STING loss by western blotting and sequencing of the STING locus.
# (§4) For the overexpression of the human STING variants, a confirmed THP1-Blue™ ISG hSTING KO clone was transduced with individual retroviral plasmids (MSCV-ires-GFP-Blasti) encoding the allelic variants of hSTING (WT (H232R), HAQ, R232H, AQ and R293Q). Transduced cells were sorted for different levels of GFP fluorescence and STING allele expression was analysed by western blot.
# (§5) Measurements of SEAP activity were performed in THP1-Blue™ ISG cells stably expressing the different human STING isoforms and the IRF-inducible SEAP reporter construct. Cells were cultivated in RPMI1640 medium with 10% fetal calf serum, 50 μg/ml Penicillin-Streptomycin, 100 μg/ml Zeocin, and 100 μg/ml Normocin in a 37°, 95% humidity and 5% CO2 incubator.
# (§6) In preparation for the assay, the cells were distributed into the assay plates with a density of 10000 cells/15 μL per well. Compounds were prepared by an 8 point serial dilution in 50% aqueous DMSO and a final dilution step into medium to ensure a final DMSO concentration of 0.5% in the assay. 5 μL of diluted compounds were added to the plates, followed by a 24 hours incubation at 37° C.
# (§7) At the day of the assay, 75 μl per well of Quanti-Blue™ reagent was added to all wells of the plate and the plate was incubated another 30 minutes at 37° C. The OD at 620 nm was measured on the EnVision reader (PerkinElmer).
# (§8) EC50 values and Hill slopes were derived from 8-point four parametric non-linear curve fittings with the Megalab software (Boehringer Ingelheim) using the OD at 620 nm.
# (§9) Data of EC50 values can be found in tables 2a-2e.
# Data of EC50 values on STING R293Q-variant can be found in table 2d: […]
# STING R232H-variant = target: T2, STING R232H-variant (Homo sapiens, UniProt Q86WV6); assay: IRF-inducible SEAP reporter assay in THP1-Blue ISG cells, STING R232H-variant; assay type: cell-based; details: 24 hours incubation
# T2 construct: expressed in transfected cells; host or cells: THP1-Blue ISG hSTING KO clone, retroviral MSCV-ires-GFP-Blasti
# Source text: as §1, §2, §3, §4, §5, §6, §7, §8, §9
# Data of EC50 values on STING R232H-variant can be found in table 2c: […]
# [1] = system: Human STING (hSTING, residues 155-341); assay: Interaction with hSTING as determined by Differential Scanning Fluorimetry (DSF); assay type: binding; details: 100 μM test compounds, 5 μM target protein
# Procedure: Interaction with hSTING as Determined by Differential Scanning Fluorimetry (DSF)
# In DSF, the temperature at which a protein unfolds, also called the melting temperature Tm, is measured by changes in fluorescence of a dye that binds to the hydrophobic parts of the protein. Tm shifts upon binding of a small molecule are correlated with the binding affinity of this small molecule. As target protein, Human STING (hSTING, residues 155-341, MW: 21578.4 Da; protein stock solution: c=1302 μM stock solution in 20 mM Tris, 100 mM NaCl, 2 mM TCEP pH 8.8) was used, as assay buffer 20 mM Tris, 150 mM NaCI pH7.5 was added where and as necessary.
# Final concentrations of components in assay: 100 μM test compounds, 5 μM target protein, “5×” SYPR Orange (from stock solution SYPRO orange solution in DMSO (invitrogen cat.-no. S6650-500 ul), concentration “5000×”)
# 1) Dilutions of compound stock solutions (10 mM in DMSO) were prepared in assay buffer (20 mM Tris, 150 mM NaCl; pH7.5)
# 2) 5 μl fluorescent dye stock solution (5000×SYPRO Orange in DMSO) was mixed with 19 μl target protein (1302 μM) and 976 μl assay buffer.
# 3) 2 μl of this protein-dye-mixture (25×SYPRO Orange and 25 μM Protein) was added to 8 μl diluted compound solution as prepared in step 1. Final volume was 10 μl.
# 4) With every 20 compounds, two negative controls were measured.
# 5) The plates were prepared for duplicate measurement and centrifuged for 2 min at 1000 g.
# 6) For the measurement, a CFX384 Real-Time System (Bio-Rad) was used. The run consisted of 140 cycles with 0.5° C./cycle (temperature ramp 15 s/cycle, 25° C. to 95° C.).
# Data analysis: The melting curves were processed in Bio-Rad CFX Manager. Peak type was set to “negative”. Two replicates of TM (melting temperature) measurements were averaged and the standard deviation was calculated.
# in vitro = details: human, Caco-2, pH 7.4
# STING H232R-variant = target: T3, STING H232R-variant (Homo sapiens, UniProt Q86WV6, H232R); assay: IRF-inducible SEAP reporter assay in THP1-Blue ISG cells, STING H232R-variant; assay type: cell-based; details: STING H232R-variant (WT), 24 hours incubation
# T3 construct: expressed in transfected cells; host or cells: THP1-Blue ISG hSTING KO clone, retroviral MSCV-ires-GFP-Blasti
# Source text: as §1, §2, §3, §4, §5, §6, §7, §8, §9
# Data of EC50 values on STING H232R-variant can be found in table 2b: […]
# STING HAQ-variant = target: T4, STING HAQ-variant (Homo sapiens, UniProt Q86WV6, G230A/H232R/R293Q/R71H); assay: IRF-inducible SEAP reporter assay in THP1-Blue ISG cells, STING HAQ-variant; assay type: cell-based; details: STING HAQ-variant (parental or re-introduced), 24 hours incubation
# T4 construct: parental THP1-Blue™ ISG cell lines (which express endogenously HAQ); host or cells: THP1-Blue ISG (parental, endogenous HAQ) or STING-KO clone re-transduced with HAQ (MSCV-ires-GFP-Blasti)
# Source text: as §1, §2, §3, §4, §5, §6, §7, §8, §9
# Data of EC50 values on STING HAQ-variant can be found in table 2a. Shown data below were either derived from the parental THP1-Blue™ ISG cell lines (which express endogenously HAQ) or from genetically engineered THP1-Blue™ ISG cell lines in which first STING has been knocked-out and the HAQ specific STING isoform has been re-introduced as described above.
# STING AQ-variant = target: T5, STING AQ-variant (Homo sapiens, UniProt Q86WV6, G230A/H232R/R293Q); assay: IRF-inducible SEAP reporter assay in THP1-Blue ISG cells, STING AQ-variant; assay type: cell-based; details: 24 hours incubation
# T5 construct: expressed in transfected cells; host or cells: THP1-Blue ISG hSTING KO clone, retroviral MSCV-ires-GFP-Blasti
# Source text: as §1, §2, §3, §4, §5, §6, §7, §8, §9
# Data of EC50 values on STING AQ-variant can be found in table 2e: […]
# T2 sequence (Q86WV6 whole entry, stated change not applied): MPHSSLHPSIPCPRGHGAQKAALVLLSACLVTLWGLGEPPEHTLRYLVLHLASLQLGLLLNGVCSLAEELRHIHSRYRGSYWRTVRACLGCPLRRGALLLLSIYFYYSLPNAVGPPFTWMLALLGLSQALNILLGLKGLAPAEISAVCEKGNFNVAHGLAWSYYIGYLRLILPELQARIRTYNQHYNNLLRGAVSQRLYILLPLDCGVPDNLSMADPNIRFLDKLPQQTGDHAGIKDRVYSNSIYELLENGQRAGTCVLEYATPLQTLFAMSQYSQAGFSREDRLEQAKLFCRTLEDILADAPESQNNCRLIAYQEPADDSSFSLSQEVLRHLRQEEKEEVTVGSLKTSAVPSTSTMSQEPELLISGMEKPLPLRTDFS
# T4 sequence (Q86WV6 whole entry R71H/G230A/H232R/R293Q): as the sequence (Q86WV6 whole entry, stated change not applied) above, with R71H, G230A, H232R, R293Q counted along it
# T5 sequence (Q86WV6 whole entry G230A/H232R/R293Q): as the sequence (Q86WV6 whole entry, stated change not applied) above, with G230A, H232R, R293Q counted along it
# T3 sequence (Q86WV6 whole entry H232R): as the sequence (Q86WV6 whole entry, stated change not applied) above, with H232R counted along it
# T1 sequence (Q86WV6 whole entry H232R/R293Q): as the sequence (Q86WV6 whole entry, stated change not applied) above, with H232R, R293Q counted along it
Compound,EC50 (STING R293Q-variant) [nM],EC50 (STING R232H-variant) [nM],Papp A→B at 10 μM (in vitro) [×10⁻⁶ cm/s],efflux ratio at 10 μM (in vitro),EC50 (STING H232R-variant) [nM],EC50 (STING HAQ-variant) [nM],EC50 (STING AQ-variant) [nM],thermal shift (ΔTm) [1] [K]
"Cc1cc2c(-c3nn(-c4ccc(N5CCC(C(=O)O)CC5)nc4)c4c(C)cccc34)cccc2cn1 [Example #61, 1-{5-[7-methyl-3-(3-methylisoquinolin-5-yl)-1H-indazol-1-yl]pyridin-2-yl}piperidine-4-carboxylic acid]",2200,2900,10,1.1,2900,3000,3000,16
"Cc1cccc2c(-c3cccc4nn(C)cc34)nn(-c3ccc(N4CCC5(CC4)C(=O)N(C)C(=O)N5C)nc3)c12 [compound 9, 8-(5-{2′,7-dimethyl-1H,2′H-[3,4′-biindazol]-1-yl}pyri-din-2-yl)-1,3-dimethyl-1,3,8-triazaspiro[4.5] decane-2,4-dione]",600,200,23,0.3,100,1000,700,23
"Cc1cccc2c(-c3cccc4nn(C)cc34)nn(-c3ccc(N4CC5(CCN(C=O)C5)C4)nc3)c12 [compound 53, 2-(5-{2′,7-dimethyl-1H,2′H-[3,4′-biinda-zol]-1-yl}pyridin-2-yl)-2,6-dia-zaspiro[3.4]octane-6-carbaldehyde]",1600,700,50,0.2,700,1700,1900,20
"CC(=O)NC1C2CN(c3ccc(-n4nc(-c5cccc6nn(C)cc56)c5cccc(C)c54)cn3)CC21 (stereo not drawn) [compound 55, N-[3-(5-{2′,7-dimethyl-1H,2′H-[3,4′-biindazol]-1-yl}pyridin-2-yl)-3-azabicyclo[3.1.0]hexan-6-yl]acetamide]",1700,700,21,1,800,2300,1200,20
"Cc1cc2c(-c3nn(-c4ccc(N5CC6C(C5)C6C(=O)O)nc4)c4c(C)cccc34)cccn2n1 (stereo not drawn) [compound 68, 3-[5-(7-methyl-3-{2-methylpyrazolo[1,5-a]pyr-idin-4-yl}-1H-indazol-1-yl)pyridin-2-yl]-3-azabicy-clo[3.1.0]hexane-6-car-boxylic acid]",800,700,16,1,700,1600,800,24

# More lines, main results first:
EC50 (STING R293Q-variant) [nM],EC50 (STING R232H-variant) [nM],Papp A→B at 10 μM (in vitro) [×10⁻⁶ cm/s],efflux ratio at 10 μM (in vitro),EC50 (STING H232R-variant) [nM],EC50 (STING HAQ-variant) [nM],EC50 (STING AQ-variant) [nM],Compound,thermal shift (ΔTm) [1] [K]
2100,500,26,,400,2100,2200,"Cc1cccc2c(-c3cccc4nn(C)cc34)nn(-c3ccc(N4CCC5(CC4)CNC5=O)nc3)c12 [compound 10, 7-(5-{2′,7-dimethyl-1H,2′H-[3,4′-biindazol]-1-yl}pyri-din-2-yl)-2,7-dia-zaspiro[3.5]nonan-1-one]",20
700,200,26,0.5,200,1000,700,"CC(=O)N1CCN(c2ccc(-n3nc(-c4cccc5nn(C)cc45)c4cccc(C)c43)cn2)CC1 [compound 15, 1-[4-(5-{2′,7-dimethyl-1H,2′H-[3,4′-biindazol]-1-yl}pyridin-2-yl)piperazin-1-yl]ethan-1-one]",21
6100,2000,26,0.3,2100,6800,5700,"Cc1cccc2c(-c3cccc4nn(C)cc34)nn(-c3ccc(N4CCOCC4)nc3)c12 [compound 17, 2′,7-dimethyl-1-[6-(mor-pholin-4-yl)pyridin-3-yl]-1H,2′H-3,4′-biindazole]",16
700,200,36,0.3,200,700,600,"Cc1cccc2c(-c3cccc4nn(C)cc34)nn(-c3ccc(N4CCC(S(C)(=O)=O)CC4)nc3)c12 [compound 18, 1-[6-(4-methanesulfonylpi-peridin-1-yl)pyridin-3-yl]-2′,7-dimethyl-1H,2′H-3,4′-biindazole]",22
2200,800,21,0.6,400,3000,2100,"Cc1cccc2c(-c3cccc4nn(C)cc34)nn(-c3ccc(N4CCC(NS(C)(=O)=O)CC4)nc3)c12 [compound 56, N-[1-(5-{2′,7-dimethyl-1H,2′H-[3,4′-biindazol]-1-yl}pyridin-2-yl)piperidin-4-yl]methanesulfonamide]",20
100,50,9,4.8,30,100,100,"Cc1c(CO)ccc2c(-c3cccc4nn(C)cc34)nn(-c3ccc(N4CCC(S(C)(=O)=O)CC4)nc3)c12 [compound 75, {1-[6-(4-methanesul-fonylpiperidin-1-yl)pyridin-3-yl]-2′,7-dimethyl-1H,2′H-[3,4′-biindazol]-6-yl}meth-anol]",26
